These results are taken from patent publication US6150366A, “Ziprasidone formulations” (Pfizer Inc., priority 1999, dated 2000).

Each structure is given as a SMILES string. Structures can show the parent of a compound that is named as a salt.

For series [1] the following is noted: cited from earlier work.
The conditions of series [2]: cited from earlier work. The source holds these as a separate data set.
A short description of series [3]: Dissolution testing in USP-2 apparatus. It counts as physicochemical. The note with it: aqueous media, at or below 85 μm. Here is the method: Usually the test result is established as an average for a pre-determined number of dosages (e.g., capsules, tablets, suspensions, or other dosage form), usually six. The dissolution media is typically maintained at 37° C. during the test. […] The amount of dissolved ziprasidone can be determined conventionally by HPLC, as hereinafter described.
A dosage form can be tested to assess its dissolution profile by dissolution testing it in a USP-2 apparatus. As previously described, the apparatus is implemented to contain 900 ml of 0.05 M NaH2 PO4 buffer, pH 7.5, containing 2% (w/w) sodium dodecyl sulfate. 1% pancreatin may be added if the dosage form being tested is a capsule, as previously noted. The pH can be adjusted as approprate using, for example, 5N NaOH or concentrated phosphoric acid. The USP-2 apparatus is equipped with paddles stirring at 75 rpm. […]
The amount of dissolved ziprasidone can be determined conventionally by HPLC. […] Quantification can be effected facilely by comparison of HPLC peak height (or area) with the peak height (or area) taken from a standard plot of concentration vs. peak height (or area) for standards of known concentration. As is conventional, the ziprasidone standard concentrations are selected to fall within a linear range of concentration vs absorbance for the UV detector employed.

The nature of series [4]: Solubility. The format is physicochemical.

For `O=C1Cc2cc(CCN3CCN(c4nsc5ccccc45)CC3)c(Cl)cc2N1` [ziprasidone hydrochloride], the permeability entry in series [1] was “high permeability”. Besides, the aqueous solubility result in series [2] is “relatively poor aqueous solubility”.
Regarding `O=C1Cc2cc(CCN3CCN(c4nsc5ccccc45)CC3)c(Cl)cc2N1` [ziprasidone], the “dependence of dissolution rate on particle size” value in series [3] is “does not vary substantially with particle size”. Further, the “solubility compared with the acid addition salt” value in series [4] (near-neutral pH) is “much less soluble”. Besides, the solubility entry in series [4] (slurry in THF/water process) is given as “low solubility”.
